# Measurements published in patent US8097773B2, “Process for selecting banana clones and banana clones obtained thereby” (Rahan Meristem (1998) Ltd, priority 2004, dated 2012).
# Tests used:
# Format in all cases: in vivo, Musa acuminata AAA, cv. 'Grande Naine'
# [1] = test system: normal in-vitro banana Grande Naine plantlets; assay: Influence of GA3 on internode length of in-vitro banana plantlets (GA sensitivity bioassay), normal; conditions: GA3 10 mg/L in medium, grown 5 weeks, hormone-free control 14.2
# Experimental: (§1) Somaclonal variants with both high and low sensitivity to GA were generated as a consequence of an extensive duration in tissue culture. Both ‘off-types’ were detectable by a relatively simple bioassay developed in this laboratory (Table 4). […] On the other hand the ‘Extra Dwarf’ phenotype was insensitive to the presence of GA in the medium.
# (§2) Meristem culture was performed on a single ‘Grande Naine’ clone employing a standard protocol used at Rahan Meristem. The meristems were sub-cultured extensively (23 cycles) to induce somaclonal variations. The in vitro plantlets were transferred to a stage III medium containing 10 ppm of gibberellic acid (GA). […] Further analysis of somaclonal variation was carried out in ex-vitro conditions. Following acclimatization, the plants were planted in 5 L pots and placed in a poly-ethylene covered greenhouse for approximately 16 weeks prior to selection of ‘off-types’. Candidate plants showing distinct somaclonal variations were selected and used for further analysis. Stability of the different mutations was monitored following the growth of the selected clones in a commercial plantation in Rosh Hanikra, Israel.
# [2] = test system: Dwarf mutant banana Grande Naine plantlets; assay: Influence of GA3 on internode length of in-vitro banana plantlets (GA sensitivity bioassay), Dwarf
# Experimental: as §1, §2
# [3] = test system: Extra dwarf mutant banana Grande Naine plantlets; assay: Influence of GA3 on internode length of in-vitro banana plantlets (GA sensitivity bioassay), Extra dwarf
# Experimental: as §1, §2
smiles,measurement,setting,value
"C=C1C[C@]23C[C@@]1(O)CC[C@H]2[C@@]12C=C[C@H](O)[C@@](C)(C(=O)O1)[C@H]2[C@@H]3C(=O)O [GA3, gibberellic acid]","""internode"" length",[1],21.7 a cm
same,"""internode"" length","[2]; Dwarf plantlets, GA3 10 mg/L in medium, grown 5 weeks, hormone-free control 10.8",14.9 b cm
same,sensitivity to GA,"[2]; dwarf genotype, GA in the medium",showed sensitivity
same,sensitivity to GA,"[3]; 'Extra Dwarf' phenotype, GA in the medium",insensitive
same,"""internode"" length","[3]; Extra dwarf mutant plantlets, GA3 10 mg/L in medium, grown 5 weeks, hormone-free control 9.6",9.6 cm·days
